Experimental data from patent US12514852B2 (CINDOME PHARMA, INC., priority 2018, dated 2026).

Key:
in vivo = conditions: male, Beagle, dog, plasma, po, 1 mg/kg
beagle dogs [1] = test: Dog cardiovascular study, QTc, non-deuterated domperidone by gavage (Example 3); assay type: in vivo; conditions: for QTc Maximum % Change / Time of QTc Maximum % Change / QTc Percent Change Segment 1 (0-6 hours) / QTc Percent Change Segment 2 (7-24 hours) / QTc change Segment 1 (0-6 hours) / QTc change Segment 2 (7-24 hours) / QTcVdW increase (Van de Water formula) / Duration of Effect (hours post dose): beagle dogs; for QTc Percent Change Segment 1 (0-6 hours) / QTc Percent Change Segment 2 (7-24 hours) / QTc change Segment 1 (0-6 hours) / QTc change Segment 2 (7-24 hours): vs time-matched control; for Duration of Effect (hours post dose): QTc
Method: Oral suspensions were administered via gavage for comparison purposes.
USP. The d4-domperidone formulation was Formulation A, Example 1. […] One animal/treatment was dosed each week with at least a 2-day washout period between administrations until each animal received all treatments. The same 4 animals received treatments according to a Latin square design. Systolic blood pressure, diastolic blood pressure, heart rate and Lead II electrocardiogram were continuously recorded. The measurements started 1.5 hrs prior to the dose administration and all parameters were continuously recorded 24 hrs following the end of dosing of the last animal.
The individual animal correction (QTcVdW) was calculated using Van de Water formula.

beagle dogs [2] = test: Dog cardiovascular study, QTc, d4-domperidone capsules (Example 3); assay type: in vivo; conditions: male dogs; for QTc Percent Change Segment 1 (0-6 hours) / QTc Percent Change Segment 2 (7-24 hours) / QTc change Segment 1 (0-6 hours) / QTc change Segment 2 (7-24 hours): vs time-matched control; for Duration of Effect (hours post dose): QTc
Method: Oral suspensions were administered via gavage for comparison purposes. […]
One animal/treatment was dosed each week with at least a 3-day washout period between administrations until each animal received all treatments. See, Table 5. The same 5 animals received all treatments according to a Latin square design with at least a 3-day washout between treatments. Body temperature, blood pressure, heart rate, and the electrocardiogram (ECG) were monitored continuously for at least 2 hours prior to dosing and for at least 24 hours post dose.
Three days prior to the study, the animals were continuously monitored for at least 24 hours for body temperature and cardiovascular endpoints while on the stock colony (10 days prior to the first administration). […] The first 24 hours of the data were used in the calculation of the QTc interval. Body temperature, blood pressure, heart rate (derived from blood pressure and ECG), and the ECG were monitored continuously from at least 2 hours predose until at least 24 hours post dose. Data were collected and analyzed in 1-minute intervals and are reported in 15-minute intervals. The QTc interval was calculated using a procedure based on the method described by Spence (“The heart rate corrected QT interval of conscious beagle dogs: a formula based on analysis of covariance,” Toxicol Sci, 1998; 45:247 258) and modified by Miyazaki and Tagawa (“Rate-correction technique for QT interval in long term telemetry ECG recording in beagle dogs,” Exp. Anim., 2002; 51:465 475). Blood samples (approximately 1 mL) were collected via jugular vein and 8 and 24 hours post dose to confirm exposure.
Table 6 indicates the change (% and ms) from the appropriate time-matched control for each d4-domperidone treatment.

O=c1[nH]c2ccccc2n1CCCN1CCC(n2c(=O)[nH]c3cc(Cl)ccc32)CC1 [domperidone, 5-chloro-1-(1-[3-(2-oxo-2,3-dihydro-1H-benzo[d]imidazol-1-yl)propyl]piperidin-4-yl)-1H-benzo[d]imidazol-2(3H)-one]
MRT last (in vivo): 5 h
QTc Maximum % Change (beagle dogs [1]; 1 mg/kg gavage): 6%
Time of QTc Maximum % Change (beagle dogs [1]; 1 mg/kg gavage): 2 h
QTc Percent Change Segment 1 (0-6 hours) (beagle dogs [1]; 1 mg/kg gavage): +6%
QTc Percent Change Segment 2 (7-24 hours) (beagle dogs [1]; 1 mg/kg gavage): +2%
QTc change Segment 1 (0-6 hours) (beagle dogs [1]; 1 mg/kg gavage): 13 ms
QTc change Segment 2 (7-24 hours) (beagle dogs [1]; 1 mg/kg gavage): 4 ms
Time of QTc Maximum % Change (beagle dogs [1]; 5 mg/kg gavage): 2 h
QTc Percent Change Segment 1 (0-6 hours) (beagle dogs [1]; 5 mg/kg gavage): +11%
QTc Percent Change Segment 2 (7-24 hours) (beagle dogs [1]; 5 mg/kg gavage): +7%
QTc change Segment 1 (0-6 hours) (beagle dogs [1]; 5 mg/kg gavage): 23 ms
QTc change Segment 2 (7-24 hours) (beagle dogs [1]; 5 mg/kg gavage): 15 ms
QTc Maximum % Change (beagle dogs [1]; 5 mg/kg gavage, statistically significant): 11%
QTcVdW increase (Van de Water formula) (beagle dogs [1]; 5 mg/kg): up to 23 msec
Time of QTc Maximum % Change (beagle dogs [1]; 20 mg/kg gavage): 2 h
QTc Percent Change Segment 1 (0-6 hours) (beagle dogs [1]; 20 mg/kg gavage): +10%
QTc Percent Change Segment 2 (7-24 hours) (beagle dogs [1]; 20 mg/kg gavage): +7%
QTc change Segment 1 (0-6 hours) (beagle dogs [1]; 20 mg/kg gavage): 21 ms
QTc change Segment 2 (7-24 hours) (beagle dogs [1]; 20 mg/kg gavage): 16 ms
QTc Maximum % Change (beagle dogs [1]; 20 mg/kg gavage, statistically significant): 10%
QTcVdW increase (Van de Water formula) (beagle dogs [1]; 20 mg/kg): ≤ 21 ms
effect on QTc change, lower doses of non-deuterated formulation compared to higher doses of deuterated formulation (beagle dogs [1]; FIGS. 9 and 10, beagle dogs, in words): greater effect on QTc change
Duration of Effect (hours post dose) (beagle dogs [1]; 1 mg/kg gavage): 1-2 hours post dose
Duration of Effect (hours post dose) (beagle dogs [1]; 5 mg/kg gavage): 0.5-6 hours post dose
Duration of Effect (hours post dose) (beagle dogs [1]; 20 mg/kg gavage): 0.5-4 hours post dose

[2H]c1c([2H])c([2H])c2c([nH]c(=O)n2CCCN2CCC(n3c(=O)[nH]c4cc(Cl)ccc43)CC2)c1[2H] [d4-domperidone, 1-{3-[4-(5-chloro-2-oxo-2,3-dihydro-1H-1,3-benzodiazol-1-yl)piperidin-1yl]propyl}-2,3-dihydro(4,5,6,7-D4)-1H-1,3-benzodiazol-2-one]
QTc Maximum % Change (beagle dogs [2]; 20 mg capsule): 4%
Time of QTc Maximum % Change (beagle dogs [2]; 20 mg capsule): 3.5 h
QTc Percent Change Segment 1 (0-6 hours) (beagle dogs [2]; 20 mg capsule): +1%
QTc Percent Change Segment 2 (7-24 hours) (beagle dogs [2]; 20 mg capsule): +0%
QTc change Segment 1 (0-6 hours) (beagle dogs [2]; 20 mg capsule): 3 ms
QTc change Segment 2 (7-24 hours) (beagle dogs [2]; 20 mg capsule): 1 ms
Time of QTc Maximum % Change (beagle dogs [2]; 110 mg capsule): 5 h
QTc Percent Change Segment 1 (0-6 hours) (beagle dogs [2]; 110 mg capsule): +5%
QTc Percent Change Segment 2 (7-24 hours) (beagle dogs [2]; 110 mg capsule): +1%
QTc change Segment 1 (0-6 hours) (beagle dogs [2]; 110 mg capsule): 12 ms
QTc change Segment 2 (7-24 hours) (beagle dogs [2]; 110 mg capsule): 2 ms
QTc Maximum % Change (beagle dogs [2]; 110 mg capsule, statistically significant): 10%
Time of QTc Maximum % Change (beagle dogs [2]; 385 mg capsule): 6 h
QTc Percent Change Segment 1 (0-6 hours) (beagle dogs [2]; 385 mg capsule): +8%
QTc Percent Change Segment 2 (7-24 hours) (beagle dogs [2]; 385 mg capsule): +6%
QTc change Segment 1 (0-6 hours) (beagle dogs [2]; 385 mg capsule): 17 ms
QTc change Segment 2 (7-24 hours) (beagle dogs [2]; 385 mg capsule): 13 ms
QTc Maximum % Change (beagle dogs [2]; 385 mg capsule, statistically significant): 13%
Duration of Effect (hours post dose) (beagle dogs [2]; 20 mg capsule): 1.5-12 hours post dose
Duration of Effect (hours post dose) (beagle dogs [2]; 110 mg capsule): 0.5-12 hours post dose
